Source: patent publication USRE39264E1, “Pharmaceutical combination” (Medivir AB, priority 1996, dated 2006)

Legend:
[1] = tested on: Human HSV-1 (strain C42 or SC16); experiment: Experiment 2: sequential test of foscarnet cream and an antiinflammatory cream in the animal model for recurrent herpes infection
Source text: In the novel animal model, virus is inoculated in the neck of a mouse. The virus will then be transported through the nerves to the skin of the corresponding ear. This transport will take approximately 3-4 days. On day 2 the animals are given immune cells with reactivity against the infecting virus. Subsequently, when the virus arrives at the ear, the animal instantly mobilises an effective immune response against the virus, thus mimicking the clinical situation of a recurrent herpes infection.
The development of zosteriform spread infection is then recorded by daily inspection of the occurrence of lesions on the pinna and swelling of the ear.
The lesions are scored on a scale from 0 to 4 as follows: • 0: no lesions on the ear • 1: isolated zosteriform lesions on the ear • 2: mild ulceration of zosteriform lesions on the ear • 3: moderate ulceration of zosteriform lesions on the ear • 4: severe ulceration of zosteriform lesions on the ear
Swelling of the ear was assessed by measuring the thickness of the ears using an engineers micrometer, as described by Kristofferson et al. The titre of infectious virus in the ear was measured as described by Kristofferson et al, except that BHK (baby hamster kidney) cells were used in addition.
On day 2 after infection the animals are given adoptive transfer of immunity, ATI, against HSV-1 by intravenous injection of 2×10^7 lymph node cells into the tail. Said lymph node cells had been prepared by injecting HSV-1 (10^5 pfu, strain C42 or strain SC16) into the pinna of both ears of anaesthetisized female Balb/C mice (16-18 g). Seven days post infection the animals are sacrificed by cervical dislocation, the draining lymph nodes are removed, and a suspension of lymph node cells in phosphate buffered saline is prepared by means of a micro mesh.
On day 4 after the infection and for 4 days, a composition to be tested as to activity against recurrent herpes is distributed equally in an amount of approximately 25 mg of cream on each side of the ear, every 8 h.
In this experiment the animals were treated with two different formulations 2 hours apart. First the foscarnet cream was applied and 2 hours later the antiinflammatory formulation. This was repeated three times daily during the treatment period (day 4-7 after infection).
The following substances were tested: foscarnet (3%, Foscarnet Cream), budesonide (0.025%, Preferid®, Gist-Brocades, The Netherlands), hydrocortisone (1%, Hydrokortison kräm 1% ACO, Kabi Pharmacia AB, Sweden), lidocaine (5%, Xylocaine®, Astra AB) and ketoprofen (2.5%, Oruvail®, Rhone-Poulenc Rorer NS, Denmark)

[2] = tested on: Human HSV-1 (strain C42 or SC16); experiment: Experiment 1: combination creams of foscarnet and an antiinflammatory substance in the animal model for recurrent herpes infection; type: in vivo, Balb/C mice; settings: for Compounded value ± s.d., Ear thickness / Compounded value ± s.d., Lesion score: cream day 4-7 after infection three times daily, mean cumulative over days 4-12, 15 and 21, ATI day 2; for Compounded value ± s.d., Lesion score: score scale 0-4; for Ear thickness (% of placebo): cumulative ear thickness; for Ear thickness (% of placebo) / Lesion score (% of placebo): placebo set to 100%; for Lesion score (% of placebo): cumulative lesion score
Experimental: This transport will take approximately 3-4 days. […] Budesonide and lidocaine were selected for testing as examples of antiinflammatory compounds. The foscarnet cream Foscarnet Cream was prepared as described in Example 1. The cream base without drug was used as placebo. The cream base described above was also mixed with budesonide cream (0.025%, […]-Brocades, The Netherlands) to obtain suitable concentrations for treatment. […] Foscarnet, the two antiinflammatory substances, as well as the two combination creams were tested in the animal model described, with ten animals in each group. The respective cream was applied day 4-7 after infection three times daily.

[3] = tested on: Human HSV-1 (strain C42 or SC16); experiment: Experiment 3: combination creams of an antiviral and an anti-inflammatory substance in the animal model for recurrent herpes infection; type: in vivo, Balb/C mice; settings: for Lesion score (% of placebo) / ear thickness (% of placebo): placebo set to 100%
Experimental: Human HSV-1 (2×10^5 plaque forming units, pfu, strain C42 or SC16) is inoculated into the neck of groups of 10-18 female in-bred Balb/C mice (16-18 g) as described by Kristofferson et al. (“Limited efficacy of inhibitors of herpes simplex virus DNA synthesis in murine models of recrudescent disease”, J. Gen. Virol. 1988; 69:1157-66). The development of zosteriform spread infection is then recorded by daily inspection of the occurrence of lesions on the pinna and swelling of the ear.
The same animal model with ten animals in each group was used.

recurrent HSV infections = settings: oral formulation, used after the appearance of symptoms; cited from earlier work
[4] = topical cream three times daily days 4-7 after infection, ATI day 2
[5] = systemic treatment, 50 mg/kg injected intra-peritoneally three times daily

| Compound | Compounded value ± s.d., Ear thickness [2] [mm] | Compounded value ± s.d., Lesion score [2] | Ear thickness (% of placebo) [2] | Lesion score (% of placebo) [2] | Mean cumulative value ± s.d., ear thickness [3, 4] [mm] | Mean cumulative value ± s.d., lesion score [3, 4] | Lesion score (% of placebo) ([3]; topical cream) | ear thickness (% of placebo) ([3]; topical cream) | further results |
| --- | --- | --- | --- | --- | --- | --- | --- | --- | --- |
| COc1ccc2c(c1)c(CC(=O)O)c(C)n2C(=O)c1ccc(Cl)cc1 [indomethacin] |  |  |  |  |  |  |  |  | Side-effects of topical NSAID ([1]; mouse, in vivo): toxic side-effects |
| O=C(O)P(=O)(O)O [Foscarnet, Trisodium phosphonoformate hexahydrate] | 3.0 ± 0.4 | 7.5 ± 2.5 | 82 % of placebo | 82 % of placebo | 3.3 ± 0.2 | 7.3 ± 1.2 | 107 % of placebo | 98 % of placebo | Virus titre in the ear ± s.d. on d 7 ([1]; ATI +, day 7 after infection): 3.25 ± 0.49 log10pfu/ml; Ear thickness (% of placebo) ([1]; cumulative ear thickness, placebo set to 100%): 88 % of placebo; Lesion score (% of placebo) ([1]; cumulative lesion score, placebo set to 100%): 84 % of placebo; Reduction of virus titre compared to placebo-treated animals ([1]; day 7 after infection): about tenfold; Mean cumulative value ± s.d., lesion score ([1]; foscarnet cream, 2 hours later antiinflammatory cream, three times daily day 4-7 after infection, ATI day 2): 4.8 ± 2.0; Mean cumulative value ± s.d., Ear thickness ([1]; foscarnet cream, 2 hours later antiinflammatory cream, three times daily day 4-7 after infection, measured as in Experiment 1): 2.8 ± 0.3; Effect on ear thickness ([1]; in comparison to placebo): small reduction; Effect on lesion score ([1]; in comparison to placebo): small reduction |
| CCN(CC)CC(=O)Nc1c(C)cccc1C [Lidocaine] | 3.6 ± 0.3 | 9 ± 2 | 100 % of placebo | 98 % of placebo |  |  |  |  | Effect on ear thickness / inflammation ([2]; compared to placebo or single creams): no effect |
| C[C@]12CCC(=O)C=C1CC[C@@H]1[C@@H]2[C@@H](O)C[C@@]2(C)[C@H]1CC[C@]2(O)C(=O)CO [Hydrocortisone] |  |  |  |  | 2.0 ± 0.2 | 6.0 ± 1.3 | 88 % of placebo | 61 % of placebo |  |
| O=C(O)Cc1ccccc1Nc1c(Cl)cccc1Cl [diclofenac] |  |  |  |  |  |  |  |  | Side-effects of topical NSAID ([1]; topical gel, probably systemic absorption in too high amounts): toxic side-effects |
| Nc1nc2c(ncn2COCCO)c(=O)[nH]1 [Acyclovir] |  |  |  |  | 3.3 ± 0.3 | 8.0 ± 1.3 | 118 % of placebo | 100 % of placebo | Shortening of healing time (recurrent HSV infections): no more than approximately one day; ear thickness (% of placebo) ([3]; systemic treatment, 50 mg/kg i.p. three times daily): 88 % of placebo; Mean cumulative value ± s.d., ear thickness [3, 5]: 3.0 ± 0.4 mm; Mean cumulative value ± s.d., lesion score [3, 5]: 7.0 ± 1.6 |
| CCCC1O[C@@H]2C[C@H]3[C@@H]4CCC5=CC(=O)C=C[C@]5(C)[C@H]4[C@@H](O)C[C@]3(C)[C@]2(C(=O)CO)O1 (stereo partly drawn) [Budesonide] | 2.1 ± 0.4 | 8.8 ± 1.8 | 58 % of placebo | 96 % of placebo |  |  |  |  |  |
